Data published in PMC10901950, “Neuroprotective and Anti-inflammatory Effects of Rubiscolin-6 Analogs with Proline Surrogates in Position 2” (Neurochemical Research, 2023).

How the values were obtained:
[1] = system: LPS-stimulated RAW 264.7 cells; experiment: Nitric oxide production in LPS-stimulated RAW 264.7 cells (Griess); assay type: cell-based, mouse; settings: LPS 1 µg/mL
Procedure: The level of NO production was determined in RAW 264.7 cells. Briefly, after cells attachment, they were treated with LPS (Millipore Sigma, Darmstadt, Germany) at 1 µg/mL for 24 h, and then the peptides were added for an additional 24 h. After cells’ treatment, the medium was collected, and the accumulation of NO metabolite in the cell culture supernatant was measured using Griess reagent (1% sulfanilamide and 0.1% naphthylethylenediamine dihydrochloride; Sigma Aldrich), where 50 µL of the supernatant was mixed with 50 µL of Griess reagent (40 mg/mL) in a 96-well plate. After incubation at room temperature and darkness for 10 min, the absorbance was measured at 540 nm. Cells treated with LPS without samples were used as the positive control of the inflammatory response.

[2] = system: LPS-stimulated RAW 264.7 cells; experiment: Intracellular ROS formation in LPS-stimulated RAW 264.7 cells; assay type: cell-based, mouse; settings: LPS 1 µg/mL
Procedure: The cytotoxic and anti-inflammatory effects of peptides on RAW 264.7 cells were estimated using MTT assay. Cells were incubated with peptides (0.1–10 µM) for 24 h to assess their cytoprotective activity. In the anti-inflammatory model, RAW 264.7 cells were exposed to LPS (Millipore Sigma, Darmstadt, Germany) at 1 µg/mL in the absence/presence of peptide at non-toxic concentrations (0.1–10 µM). Then, the MTT reagent was added to wells, and cells were incubated for 1.5 h at 37 °C. After this time, MTT was removed, 100 µL DMSO was added, and the resulting absorbance was read in a microplate reader (Synergy 2 BioTek Microplate Reader, Winooski, VT, USA) at 570 nm.
(§1) The detection of ROS generated in injured cells was evaluated using the 5(6)-carboxy-2ʹ,7ʹ-dichlorofluorescein diacetate (carboxy-H2DCFDA) reagent (Invitrogen, Bleiswijk, Netherlands). After incubation, cells were washed with ice-cold Phosphate-Buffer Saline (PBS). Then, the carboxyl-H2DCFDA (100 µL, 20 µM) reagent was added and incubated for 1 h at 37 °C. Finally, the fluorescence intensity was measured at wavelengths of […], and ROS levels were presented in percentage of control (non-treated cells).

Caspase-3 = Caspase-3 activity in 6-OHDA-treated SH-SY5Y cells; assay type: cell-based, human; settings: STAU 1 µM, positive control
Procedure: Caspase-3 activity was assessed using “Caspase-3 fluorometric assay” (Sigma, St. Louis, MO, USA) with minor changes adapted by Silva et al.. The cells were treated with 6-OHDA (100 µM) for 6 h in the presence or absence of peptides. After this period, the culture medium was removed, and cells were rinsed with ice-cold PBS and collected by centrifugation at 3300×g for 5 min. The pellets were resuspended in lysis buffer, incubated for about 20 min on ice and finally centrifuged at 22,500×g, 4 °C, for 20 min. Cell lysates were processed following the manufacturer’s protocol, and fluorescence was read at wavelengths of 360 nm (excitation) and 460 nm (emission). Caspase-3 activity was calculated through the curve slope and presented as Δ fluorescence (a.u.)/mg of protein/min). Staurosporine (STAU, 1 µM) was used as positive control.

AKT = experiment: Western blot, AKT phosphorylation in 6-OHDA-treated SH-SY5Y cells; assay type: cell-based, human; settings: peptide 10 µM, 2.5-10 min, 6-OHDA 100 µM treated cells
Procedure: The neuroblastoma SH-SY5Y cells were grown in a 6-well plate and when 80–90% confluent treated with 6-OHDA (100 µM) for 24 h. Then cells were stimulated with peptides for 2.5, 5, 7.5 and 10 min (for AKT) or 24 h (for mTOR). When needed, a 30 min pre-incubation step with LY 294002 was included before analogs and 6-OHDA addition. Stimulation was terminated by aspiration of the medium. Cells were washed 2 times with ice-cold PBS, and then 200 µL of ice-cold lysis buffer [150 mM NaCl, 20 mM Tris–HCl, glycerol, 5 mM EDTA, 0.5 mM phenylmethylsulphonylfluoride (PMSF), 10% Triton X-100, 100 mM protease inhibitors, pH 7.4] was added. Cells were incubated on ice for 15 min. Lysates were then centrifuged at 12,000×g for 10 min at 4 °C, and the supernatants were used as the total cell lysates. The protein content in the supernatants was quantified using the Bio-Rad protein assay kit. Equal amounts of protein were separated on 10% sodium dodecyl sulfate (SDS)-polyacrylamide gels and transferred to polyvinylidene difluoride membranes from (PVDF, Millipore, Cork, Ireland). Non-specific binding was blocked with tris-buffered saline Tween-20 (TBS-T: 150 mM NaCl, 20 mM Tris–HCl, 0.1% Tween 20, pH 7.5) containing 5% nonfat milk for 2 h at room temperature. Then, the membrane was incubated overnight at 4 °C with one of the following specific primary antibodies: Vinculin (1:1000 dilution; Cell Signalling Technology, Danvers, MA, USA), p-AKT (1:1000 dilution; Cell Signalling Technology, Danvers, MA, USA), AKT (1:1000 dilution; Cell Signalling Technology, Danvers, MA, USA), p-mTOR (1:1000 dilution; Cell Signalling Technology, Danvers, MA, USA), mTOR (1:1000 dilution; Cell Signalling Technology, Danvers, MA, USA). After incubation, membranes were washed six times per 5 min with TBS-T. In the next step, membranes were incubated with HRP-conjugated secondary antibodies (1:1000 dilution; Cell Signalling Technology, Danvers, MA, USA) for 1 h. Following six washes with TBS-T, the protein bands were detected with the Clarity Western ECL reagent from Bio-Rad. The band intensity was quantified by NIH ImageJ densitometric analysis. For quantification, specific phosphorylation was calculated as the ratio of phosphorylated AKT or mTOR signals to the total Akt or mTOR signal detected. Values of unstimulated samples were set to 1.0. The original immunoblots are provided in Supplementary data.

SH-SY5Y cells [3] = experiment: Neuroprotection in 6-OHDA-treated SH-SY5Y cells (MTT); assay type: cell-based, human; settings: 6-OHDA 100 µM, 24 h, vehicle 100.00 ± 4.60%
Procedure: The neuroprotective experiments were performed in an in vitro model of a human neuroblastoma cell line (SH-SY5Y) obtained from the German Collection of Microorganisms and Cell Cultures GmbH (DSMZ) Bank (ACC 209). Cells were cultured in Dulbecco’s Modified Eagle’s Medium: Nutrient Mixture F12 (DMEM:F12) supplemented with 1% antibiotic/antimycotic (Amphotericin B, Penicillin and Streptomycin) (Biowest, Nuaillé, France) and 10% (v/v) Fetal Bovine Serum (FBS) (Biowest, Riverside, MO, USA). The anti-inflammatory experiments were performed in an in vitro model of mouse macrophage-like RAW 264.7 cells, purchased from American Type Culture Collection (ATCC, Manassas, VA, USA). Cells were maintained in DMEM medium (Gibco™, Grand Island, NY) and supplemented with 10% bovine calf serum (BCS) (Gibco™, Grand Island, NY) and 1% penicillin–streptomycin (Sigma-Aldrich, St. Louis, MO, USA). Cell cultures were kept at 37 °C in 5% CO2/humidified air.
Cells were incubated with peptides (0.1–10 µM) for 24 h to assess their cytotoxic activity. In the neuroprotective model, SH-SY5Y cells were exposed to 6-OHDA (100 µM) in the absence/presence of peptide at non-toxic concentrations (0.1–10 µM). When needed, a 30 min pre-incubation step with β-funaltrexamine (β-FNA, µ-opioid receptor antagonist, 10 µM), naltrindole (NLT, δ-opioid receptor antagonist, 10 µM), 2’-amino-3’-methoxyflavone (PD 98059, MAPK kinase 1 (MEK 1) inhibitor, 50 µM) or 2-(4-morpholinyl)-8-phenyl-4H-1-benzopyran-4-one (LY 294002, PI3-K inhibitor, 20 µM). Stimulation was terminated by aspiration of the medium and adding 100 µL MTT (1.2 mM) per well. Cells were incubated for 1 h at 37 °C. After this time, MTT was removed, and 100 µL DMSO was added. The resulting absorbance was read in a microplate reader (Biotek, Epoch/2 microplate reader, Winooski, VT, USA) at 570 nm.
Cell metabolic activity (cytotoxicity) was calculated as the percentage of the value obtained for cells incubated with compounds compared to control cells treated with the medium.

SH-SY5Y cells [4] = experiment: Intracellular ROS production in 6-OHDA-treated SH-SY5Y cells; assay type: cell-based, human; settings: 6-OHDA 100 µM
Procedure: as §1

SH-SY5Y cells [5] = experiment: Mitochondrial membrane potential (JC-1) in 6-OHDA-treated SH-SY5Y cells; assay type: cell-based, human; settings: 6-OHDA 100 µM, 6 h, JC-1
Procedure: Mitochondrial function was assessed by monitoring changes in MMP (∆Ψm) using the fluorescent probe, JC-1 fluorescence dye (5,5′,6,6′-tetrachloro-1,1′,3,3′-tetraethyl-imidacarbocyanine iodide, Molecular Probes, T3168, Eugene, Oregon, USA). The assay was performed according to the method described by Silva et al.. Briefly, SH-SY5Y cells were exposed 6 h to 6-OHDA (100 μM) in the presence or absence of peptides. After incubation, cells were washed with ice-cold PBS, and then JC-1 reagent (3 µM, 200 µL) was added for 15 min at 37 °C. Afterwards, JC-1 was removed, and cells were washed with PBS. The formation of JC-1 aggregates (490 nm of excitation and 590 nm of emission) and the monomeric form of JC-1 (490 nm of excitation and 530 nm of emission) was accompanied simultaneously in the plate reader for 30 min. Results were expressed as the ratio of the monomers/aggregates of JC-1 in the percentage of control.

lipopolysaccharide [LPS, reference compound]
NO levels compared to the unstimulated control [1]: exceeded 330% | ROS level compared to the control [2]: increased almost twice

CN[C@@H]1C[C@H]2O[C@@](C)([C@@H]1OC)n1c3ccccc3c3c4c(c5c6ccccc6n2c5c31)C(=O)NC4 [STAU, Staurosporine, reference compound]
effect on Caspase-3 activity (Caspase-3): marked increase

NCCc1cc(O)c(O)cc1O [6-OHDA, 6-hydroxydopamine, reference compound]
AKT phosphorylation (AKT): blocked | viable cells after 6-OHDA exposure (SH-SY5Y cells [3]): 48.63 ± 1.25 % of viable cells | increase of ROS levels compared with vehicle (SH-SY5Y cells [4]): around 80% | increase of MMP depolarization compared to vehicle (SH-SY5Y cells [5]): 114%
